Reference: US20240360114A1 (SIRONAX LTD., priority 2021, published 2024)

System: HT-1080 cells
Experiment: HT-1080 cell viability assay (ferroptosis induced by RSL3, Cell Titer-Glo)
Type: cell-based
Settings: Homo sapiens, ferroptosis inducer RSL3, 20 hours, ferroptosis inhibitory activity, Table 2
Description: Example 2. Determination of EC50 Values in HT-1080 Cell Viability Assay
HT-1080 (ATCC, CCL-121) cells (6000 in 100 μl) were seeded in 96-well plates (Corning) and cultured in a 37° C. incubator with a humidified atmosphere of 5% CO2 for overnight. Cells were then treated with ferroptosis inducer RSL3 (TargetMol) and a 3-fold, 10-point serial dilution series of compounds with 1.1 μM as the highest concentration, for 20 hours. Cell viability was assessed using the Cell Titer-Glo Kit (Promega). The luminescence intensity was measured with a microplate reader (Envision, PerkinElmer), and cell viability was calculated by normalizing the data to untreated controls. The EC50 values of the compounds (e.g., Compounds 1-573 and 574-661) were calculated in GraphPad Prism (GraphPad Software, Inc., San Diego, CA, USA). The curves were fitted using a non-linear regression model with a sigmoidal dose response.

| SMILES | EC50 (HT-1080, 20 h) | EC50 |
| --- | --- | --- |
| NCC1CCC(Nc2ccc(N3CCC(C(F)(F)F)CC3)cc2)CC1 (stereo not shown) [Compound 3, N-(4-(aminomethyl)cyclohexyl)-4-(4-(trifluoromethyl)piperidin-1-yl)aniline] | 0.1 to 100 nM | – |
| CC1CCC(Nc2ccc(N3CCC(C(F)(F)F)CC3)cc2)CC1 (stereo not shown) [Compound 4A, N-(4-methylcyclohexyl)-4-(4-(trifluoromethyl)piperidin-1-yl)aniline] | 0.1 to 100 nM | – |
| CCN1CCC(Nc2ccc(N3CCC(C(F)(F)F)CC3)cc2)CC1 [Compound 5, 1-ethyl-N-(4-(4-(trifluoromethyl)piperidin-1-yl)phenyl)piperidin-4-amine] | 0.1 to 100 nM | – |
| COC(=O)C1CCC(Nc2ccc(N3CCC(C(F)(F)F)CC3)cc2)CC1 (stereo not shown) [Compound 6A, methyl 4-((4-(4-(trifluoromethyl)piperidin-1-yl)phenyl)amino)cyclohexane-1-carboxylate] | 0.1 to 100 nM | – |
| CC(C)Nc1ccc(N2CCC(C(F)(F)F)CC2)cc1 [Compound 7, N-isopropyl-4-(4-(trifluoromethyl)piperidin-1-yl)aniline] | 0.1 to 100 nM | – |
| CN(C)C1CCC(Nc2ccc(N3CCC(C(F)(F)F)CC3)cc2)CC1 (stereo not shown) [Compound 8, N1,N1-dimethyl-N4-(4-(4-(trifluoromethyl)piperidin-1-yl)phenyl)cyclohexane-1,4-diamine] | 0.1 to 100 nM | – |
| O=C(O)C1CCC(Nc2ccc(N3CCC(C(F)(F)F)CC3)cc2)CC1 (stereo not shown) [Compound 9, 4-((4-(4-(trifluoromethyl)piperidin-1-yl)phenyl)amino)cyclohexane-1-carboxylic acid] | 1000 to 10000 nM | – |
| NC(=O)C1CCC(Nc2ccc(N3CCC(C(F)(F)F)CC3)cc2)CC1 (stereo not shown) [Compound 10, 4-((4-(4-(trifluoromethyl)piperidin-1-yl)phenyl)amino)cyclohexane-1-carboxamide] | 0.1 to 100 nM | – |
| CC(C)(C)Nc1ccc(N2CCC(C(F)(F)F)CC2)cc1 [Compound 11, N-(tert-butyl)-4-(4-(trifluoromethyl)piperidin-1-yl)aniline] | 100 to 1000 nM | – |
| COCCCCNc1ccc(N2CCC(C(F)(F)F)CC2)cc1 [Compound 12, N-(4-methoxybutyl)-4-(4-(trifluoromethyl)piperidin-1-yl)aniline] | 0.1 to 100 nM | – |
| CCNc1ccc(N2CCC(C(F)(F)F)CC2)cc1 [Compound 13, N-ethyl-4-(4-(trifluoromethyl)piperidin-1-yl)aniline] | 0.1 to 100 nM | – |
| CCCNc1ccc(N2CCC(C(F)(F)F)CC2)cc1 [Compound 14, N-propyl-4-(4-(trifluoromethyl)piperidin-1-yl)aniline] | 0.1 to 100 nM | – |
| CCCCCNc1ccc(N2CCC(C(F)(F)F)CC2)cc1 [Compound 15, N-pentyl-4-(4-(trifluoromethyl)piperidin-1-yl)aniline] | 0.1 to 100 nM | – |
| CN1CCC(Nc2ccc(N3CCC(C(F)(F)F)CC3)cc2)C1 (stereo not shown) [Compound 16, 1-methyl-N-(4-(4-(trifluoromethyl)piperidin-1-yl)phenyl)pyrrolidin-3-amine] | 0.1 to 100 nM | – |
| FC(F)(F)C1CCN(c2ccc(NC3CCOCC3)cc2)CC1 [Compound 17, N-(4-(4-(trifluoromethyl)piperidin-1-yl)phenyl)tetrahydro-2H-pyran-4-amine] | 0.1 to 100 nM | – |
| O=C1NC[C@H](C(=O)NCC2CCC(Nc3ccc(N4CCC(C(F)(F)F)CC4)cc3)CC2)N1 (stereo partly drawn) [Compound 18, (R)-2-oxo-N-((4-((4-(4-(trifluoromethyl)piperidin-1-yl)phenyl)amino)cyclohexyl)methyl)imidaz olidine-4-carboxamide] | 0.1 to 100 nM | – |
| O=C(NCC1CCC(Nc2ccc(N3CCC(C(F)(F)F)CC3)cc2)CC1)C1CCNC1 (stereo not shown) [Compound 19, N-((4-((4-(4-(trifluoromethyl)piperidin-1-yl)phenyl)amino)cyclohexyl)methyl)pyrrolidine-3-car boxamide] | 0.1 to 100 nM | – |
| FC(F)(F)C1CCN(c2ccc(NC3CCNCC3)cc2)CC1 [Compound 20, N-(4-(4-(trifluoromethyl)piperidin-1-yl)phenyl)piperidin-4-amine] | – | 0.1 to 100 nM |
| NCC1CCC(Nc2ccc(N3CCC(C(F)(F)F)CC3)nc2)CC1 (stereo not shown) [Compound 21, N-(4-(aminomethyl)cyclohexyl)-6-(4-(trifluoromethyl)piperidin-1-yl)pyridin-3-amine] | 0.1 to 100 nM | – |
| Cc1cc(N2CCC(C(F)(F)F)CC2)nc(F)c1NC1CCC(CN)CC1 (stereo not shown) [Compound 22, N-(4-(aminomethyl)cyclohexyl)-2-fluoro-4-methyl-6-(4-(trifluoromethyl)piperidin-1-yl)pyridin-3-amine] | 100 to 1000 nM | – |
| CC(C)C1CCN(c2ncc(NC3CCC(CN)CC3)cn2)CC1 (stereo not shown) [Compound 24A, N-(4-(aminomethyl)cyclohexyl)-2-(4-isopropylpiperidin-1-yl)pyrimidin-5-amine] | – | 0.1 to 100 nM |
| Cc1nc(N2CCC(C(F)(F)F)CC2)ccc1NC1CCC(CN)CC1 (stereo not shown) [Compound 25, N-(4-(aminomethyl)cyclohexyl)-2-methyl-6-(4-(trifluoromethyl)piperidin-1-yl)pyridin-3-amine] | 0.1 to 100 nM | – |

| SMILES | EC50 (HT-1080, 20 h) | EC50 |
| --- | --- | --- |
| Cc1nc(N2CCC(C)CC2)ccc1NC1CCC(CN)CC1 (stereo not shown) [Compound 26, N-(4-(aminomethyl)cyclohexyl)-2-methyl-6-(4-methylpiperidin-1-yl)pyridin-3-amine] | 0.1 to 100 nM | – |
| CN1CCC(Nc2ccc(N3CCC(C(F)(F)F)CC3)cc2)CC1=O (stereo not shown) [Compound 27, 1-methyl-4-((4-(4-(trifluoromethyl)piperidin-1-yl)phenyl)amino)piperidin-2-one] | 100 to 1000 nM | – |
| CC(C)C1CCN(c2ncc(NC3CC(N)C3)cn2)CC1 (stereo not shown) [Compound 28, N1-(2-(4-isopropylpiperidin-1-yl)pyrimidin-5-yl)cyclobutane-1,3-diamine] | 0.1 to 100 nM | – |
| CCCC1CCN(c2ncc(NC3CCC(N)CC3)cn2)CC1 (stereo not shown) [Compound 29, N1-(2-(4-propylpiperidin-1-yl)pyrimidin-5-yl)cyclohexane-1,4-diamine] | 0.1 to 100 nM | – |
| CCCCC1CCN(c2ccc(NC3CCC(CN)CC3)c(C)n2)CC1 (stereo not shown) [Compound 30, N-(4-(aminomethyl)cyclohexyl)-6-(4-butylpiperidin-1-yl)-2-methylpyridin-3-amine] | 0.1 to 100 nM | – |
| Cc1nc(N2CCC(C(C)C)CC2)ccc1NC1CCC(CN)CC1 (stereo not shown) [Compound 31, N-(4-(aminomethyl)cyclohexyl)-6-(4-isopropylpiperidin-1-yl)-2-methylpyridin-3-amine] | 0.1 to 100 nM | – |
| Cc1nc(N2CCC(C)(C)CC2)ccc1NC1CCC(CN)CC1 (stereo not shown) [Compound 32A, N-(4-(aminomethyl)cyclohexyl)-6-(4,4-dimethylpiperidin-1-yl)-2-methylpyridin-3-amine] | 0.1 to 100 nM | – |
| CC1(C)CN(c2ncc(NC3CCC(N)CC3)cn2)C1 (stereo not shown) [Compound 33A, N1-(2-(3,3-dimethylazetidin-1-yl)pyrimidin-5-yl)cyclohexane-1,4-diamine] | 1000 to 10000 nM | – |
| CC(C)C1CCN(c2ncc(NC3CCC(N)CC3)cn2)CC1 (stereo not shown) [Compound 34A, N1-(2-(4-isopropylpiperidin-1-yl)pyrimidin-5-yl)cyclohexane-1,4-diamine] | 0.1 to 100 nM | – |
| CC(C)C1CCN(c2ncc(NC3CCNCC3)cn2)CC1 [Compound 35, 2-(4-isopropylpiperidin-1-yl)-N-(piperidin-4-yl)pyrimidin-5-amine] | 0.1 to 100 nM | – |
| CC(C)C1CCN(c2ncc(NC3CCNC3)cn2)CC1 (stereo not shown) [Compound 36, 2-(4-isopropylpiperidin-1-yl)-N-(pyrrolidin-3-yl)pyrimidin-5-amine] | 0.1 to 100 nM | – |
| NC1CCC(Nc2ccc(-n3cccn3)cc2)CC1 (stereo not shown) [Compound 37A, N1-(4-(1H-pyrazol-1-yl)phenyl)cyclohexane-1,4-diamine] | 1000 to 10000 nM | – |
| CC(C)C1CCN(c2ncc(NC3CCC(N)C3)cn2)CC1 (stereo not shown) [Compound 38, N1-(2-(4-isopropylpiperidin-1-yl)pyrimidin-5-yl)cyclopentane-1,3-diamine] | 0.1 to 100 nM | – |
| COCCCCOc1cc(NC2CCC(N)CC2)ccc1N1CCC(C(F)(F)F)CC1 (stereo not shown) [Compound 39, N1-(3-(4-methoxybutoxy)-4-(4-(trifluoromethyl)piperidin-1-yl)phenyl)cyclohexane-1,4-diamine] | 0.1 to 100 nM | – |
| NC1CCC(Nc2ccc(N3CCC(C(F)(F)F)CC3)cc2)CC1 (stereo not shown) [Compound 40, N1-(4-(4-(trifluoromethyl)piperidin-1-yl)phenyl)cyclohexane-1,4-diamine] | 0.1 to 100 nM | – |
| NCCOc1cc(NC2CCC(N)CC2)ccc1N1CCC(C(F)(F)F)CC1 (stereo not shown) [Compound 41A, N1-(3-(2-aminoethoxy)-4-(4-(trifluoromethyl)piperidin-1-yl)phenyl)cyclohexane-1,4-diamine] | 100 to 1000 nM | – |
| NC1CCC(Nc2cnc(N3CCC(C(F)(F)F)CC3)nc2)CC1 (stereo not shown) [Compound 42, N1-(2-(4-(trifluoromethyl)piperidin-1-yl)pyrimidin-5-yl)cyclohexane-1,4-diamine] | 0.1 to 100 nM | – |
| CCC1CCN(c2ncc(NC3CCC(N)CC3)cn2)CC1 (stereo not shown) [Compound 43, N1-(2-(4-ethylpiperidin-1-yl)pyrimidin-5-yl)cyclohexane-1,4-diamine] | 0.1 to 100 nM | – |
| CC1CCN(c2ncc(NC3CCC(N)CC3)cn2)CC1 (stereo not shown) [Compound 44, N1-(2-(4-methylpiperidin-1-yl)pyrimidin-5-yl)cyclohexane-1,4-diamine] | 0.1 to 100 nM | – |
| CC1(C)CCN(c2ncc(NC3CCC(N)CC3)cn2)CC1 (stereo not shown) [Compound 45, N1-(2-(4,4-dimethylpiperidin-1-yl)pyrimidin-5-yl)cyclohexane-1,4-diamine] | 0.1 to 100 nM | – |
| CCCC1CN(c2ncc(NC3CCC(N)CC3)cn2)C1 (stereo not shown) [Compound 46, N1-(2-(3-propylazetidin-1-yl)pyrimidin-5-yl)cyclohexane-1,4-diamine] | 100 to 1000 nM | – |
